Data on one molecule can be found in patent US20260263552A1, “PHARMACEUTICAL COMPOSITIONS FOR IMPROVING ORAL BIOAVAILABILITY” (priority 2023, published 2026).

A short description of data set [1]: Dog pK study (Example 4), 20 mg dose. More on the design: species or system dogs. The settings on record: in vivo, iv, 10 mg.
Data set [2] in a line: Oral absorption / pharmacokinetics of Compound (I) formulations in cynomolgus monkeys. It counts as in vivo. The settings on record: cyno monkeys. The protocol:
An aqueous suspension of […] was prepared at 10% solid content. […] Six enteric coated tablets were encapsulated in a size #00 hard gelatin capsule for the cyno PK study. Each cyno monkey was dosed with 2 capsules (12 enteric coated tablets). […] The mean exposure is shown in FIG. 1 with error bars showing the standard deviation.

Data set [3] is described as follows: Dog pK study (Example 5E), effect of sodium decanoate amount and number of tablets, 100 mg dose. More on the design: species or system dogs. The settings on record: in vivo, iv, 10 mg. Here is the method:
Blood samples were withdrawn over a period of 72 hours. […] Error bars describe standard deviation. […] Decreasing the amount of sodium decanoate decreased PK exposure at 330 mg of sodium decanoate. […] Table 12 summarizes all of the PK data for all the formulations tested in Example 5.

[4] abbreviates: 0.1 mg/kg IV (0.5 mg), reference.

As to `CCCC[C@H]1C(=O)N(C)[C@@H](CCCC)C(=O)N[C@@H](CC(C)C)C(=O)N[C@H](C(=O)NCC(=O)N[C@@H](Cc2cn(CCOCCOCCCOCCCOCCOCCOCCOCCOCCOCCOCCOCCNC(=O)CC[C@H](NC(=O)CCCCCCCCCCCCCCCCC(=O)O)C(=O)O)nn2)C(=O)O)CSCC(=O)N[C@@H](Cc2ccc(O)cc2)C(=O)N(C)[C@@H](C)C(=O)N[C@@H](CC(N)=O)C(=O)N2CCC[C@H]2C(=O)N[C@@H](CN)C(=O)N[C@@H](CC(C)C)C(=O)N2C[C@H](O)C[C@H]2C(=O)N[C@@H](Cc2c[nH]c3ccccc23)C(=O)N[C@@H](CCN)C(=O)N[C@@H](Cc2cn(CC(=O)O)c3ccccc23)C(=O)N1C` [Compound (I)], in data set [1], the “AUCinf (ng · h/mL) Mean” value came to 1198.53803 µg·h/mL and the “Cmax (ng/mL) Mean” value was 25466.29 ng/mL. Also, in data set [2] (0.1 mg/kg IV (0.5 mg)), the “AUC0-24 h (nM · h) Mean” value came to 47.61351 µM·h, the “AUCinf (nM · h) Mean” value worked out at 51.96595 µM·h and the highest level (Cmax) was 798 nM. In data set [2] (setting [4]), the “BA (%) Mean” value is recorded as 100.00% and the “BA (%) using AUCInf Mean” value is given as 100.00%. In data set [2] (oral, 12 mg, formulated as in Example 1, 72 hours), the “plasma concentration of Compound (I) over time” value is “good plasma concentration”. For the same molecule, in data set [3], the “AUCinf (ng · h/mL) Mean” value amounted to 1198.53803 µg·h/mL and the “Cmax (ng/mL) Mean” value came out at 25466.29 ng/mL.

One may read the Cmax as the highest concentration seen after dosing.
